Like-named read-outs stand apart in the source and are kept apart here. Marks after values point to notes of the source that are not given here. Where a SMILES comes first, the peptide text is derived from it. [ ]: non-standard residue; d: D form. The star is where a group is joined. Dolaproine = CO[C@@H]([C@@H]1CCCN1)[C@@H](C)C(=O)O; Dil = CC[C@H](C)[C@H](NC)[C@@H](CC(=O)O)OC; X1 = C[C@@H](N*)[C@@H](O)c1ccccc1; NMeV = CN[C@H](C(=O)O)C(C)C

We go through 5 compounds from paper PMC7150891, “Mertansine Inhibits mRNA Expression and Enzyme Activities of Cytochrome P450s and Uridine 5′-Diphospho-Glucuronosyltransferases in Human Hepatocytes and Liver Microsomes” (Pharmaceutics, 2020).

One series deals with CYP2B6 mRNA. Briefly: CYP2B6 mRNA level in human hepatocytes after 48 h treatment (RT-PCR). The settings on record: 48 h, 10 nM. The series is classed as cell-based. The text has this:
(§1) 12.5 (Systat Software, Inc.; San Jose, CA, USA). […] 1.1 (Systat Software, Inc.).

Another series deals with CYP2B6. Kind of series: CYP2B6-catalyzed bupropion hydroxylase activity in human hepatocytes after 48 h treatment. The settings on record: human, 48 h, 10 nM. The procedure: (§2) Samples were incubated for 48 h at 37 °C in 5% CO2, and the medium was exchanged with 250 μL of fresh medium containing drugs or the vehicle every 24 h.
(§3) The effects of mertansine on CYP1A2, CYP2B6, and CYP3A4 activities were evaluated. […] Mixtures were vortexed for 2 min and then centrifuged at 13,000 g for 4 min at 4 °C. The supernatant (40 µL) was diluted with 60 µL of deionized water and then mixed for 2 min by vortexing. An aliquot (5 µL) was analyzed using LC-MS/MS [37], and CYP1A2, CYP2B6, and CYP3A4 enzyme activities were expressed as formation rates (pmol/million cells/min).
(§4) The percentage changes in enzymatic activities were calculated as (CYP activity with test compound treatment/CYP activity with vehicle control treatment) × 100. The IC50 (the concentration of the inhibitor needed for half-maximal inhibition) values were calculated using SigmaPlot ver. […] Ki (the inhibition constant) and the inhibition mode of UGT1A1, UGT1A3, and UGT1A4 activities were determined using Enzyme Kinetics ver. 1.1 (Systat Software, Inc.).

Series [1] relates to CYP1A2, CYP2B6, and CYP3A4 mRNA. The arrangement: method as in PMID 22752008. To be noted: three human hepatocytes, cited from earlier work.
The subject of the next series is CYP activities. Details: method as in PMID 22752008. To be noted: three human hepatocytes, cited from earlier work.
Another series has as its system CYP1A2 mRNA. Kind of series: CYP1A2 mRNA level in human hepatocytes after 48 h treatment (RT-PCR). The series is classed as cell-based. The settings on record: 48 h, 50 µM.
Text: as §1

A further series has as its system UGT1A1 mRNA. Kind of series: UGT1A1 mRNA level in human hepatocytes after 48 h treatment (RT-PCR). To be noted: 48 h.
The test system of the next series is CYP1A2. Kind of series: CYP1A2-catalyzed phenacetin O-deethylase activity in human hepatocytes after 48 h treatment. The settings on record: 48 h; for Enzyme Activities: CYP1A2-catalyzed phenacetin O-deethylase activity: Omeprazole 50 μM. As to the method:
as §2, §3, §4

For a further series, the system named is UGT1A4 mRNA. Briefly: UGT1A4 mRNA level in human hepatocytes after 48 h treatment (RT-PCR). To be noted: 50 μM omeprazole, 48 h, range over three human hepatocytes.
The test system of the next series is CYP2C8 mRNA. To be noted: human, hepatocytes, 48 h, 10 μM.
A further series concerns CYP2C19 mRNA. To be noted: human, hepatocytes, 48 h, 10 μM.
Series [2] deals with HER2-positive metastatic breast cancer. To be noted: five randomized clinical trials, 3,720 patients; cited from earlier work.

Turning to `Clc1ccc(-c2nc3sccn3c2C=NOCc2ccc(Cl)c(Cl)c2)cc1` [CITCO, 6-(4-chlorophenyl)imidazo[2,1-b](1,3)thiazole-5-carbaldehyde-O-(3,4-dichlorobenzyl)oxime], in the series with CYP2B6 mRNA, the “Increase of CYP2B6 mRNA levels” value was 5.6–8.7 fold. Moreover, in the series on CYP2B6, the “Increase of CYP2B6-mediated bupropion hydroxylase activity” value is on record as 3.8–15.7 fold.

For the compound `CC[C@H](C)[C@@H]([C@@H](CC(=O)N1CCC[C@H]1[C@H](OC)[C@@H](C)C(=O)N[C@H](C)[C@@H](O)c1ccccc1)OC)N(C)C(=O)[C@@H](NC(=O)[C@@H](NC)C(C)C)C(C)C` [MMAE, monomethyl auristatin E] (H-[NMeV]V[Dil][Dolaproine]-X1), the entries for the “Suppression of CYP1A2, CYP2B6, and CYP3A4 mRNA expression” value in series [1] (100 nM MMAE) and in series [1] (1000 nM MMAE) were 61–90% and 95–97%, respectively. Also, the “Decrease of CYP activities” value in the series on CYP activities (100 nM MMAE) is 40–71%; with CYP activities (1000 nM MMAE), 45–81%.

In the case of `COc1ccc2[nH]c([S+]([O-])Cc3ncc(C)c(OC)c3C)nc2c1` (centres unmarked) [Omeprazole, omeprazole], the “Increase of CYP1A2 mRNA levels” value in the series with CYP1A2 mRNA is listed as 58.7–299.3 fold. Besides, the “Increase of UGT1A1 mRNA levels” value in the series on UGT1A1 mRNA (50 μM omeprazole, range over three human hepatocytes) was 3.9–7.0 fold. Moreover, in the series with UGT1A1 mRNA (Omeprazole 50 μM, Lot 319), the “UGT1A1 mRNA (Fold Change)” value is 6.97 ± 0.94 Fold Change. The “Increase of CYP1A2-mediated phenacetin O-deethylase activity” value with CYP1A2 (50 µM omeprazole, vs vehicle, range over three human hepatocytes) is 11.7–61.8 fold. Besides, the figures for the “Enzyme Activities: CYP1A2-catalyzed phenacetin O-deethylase activity” value with CYP1A2 (Lot 319), in the series with CYP1A2 (Lot 321) and in the series on CYP1A2 (Lot 361) were 18.5 ± 3.3 ^a pmol/10^6 Cells/min, 89.45 ± 4.52 ^a pmol/10^6 Cells/min and 81.0 ± 0.53 ^a pmol/10^6 Cells/min, respectively. The “Increase of UGT1A4 mRNA levels” value in the series on UGT1A4 mRNA is 3.3–4.1 fold.

Consider `CO[C@H]1/C=C/O[C@@]2(C)Oc3c(C)c(O)c4c(O)c(c(/C=N/N5CCN(C)CC5)c(O)c4c3C2=O)NC(=O)/C(C)=C\C=C\[C@H](C)[C@H](O)[C@@H](C)[C@@H](O)[C@@H](C)[C@H](OC(C)=O)[C@@H]1C` [Rifampin, rifampin], for which the “Increase of CYP2C8 mRNA levels” value in the series with CYP2C8 mRNA is given as 3.7–4.8 fold. Further, in the series on CYP2C19 mRNA, the “Increase of CYP2C19 mRNA levels” value is reported as 2.0–2.2 fold.

Consider trastuzumab emtansine [T-DM1], for which the “Progression-free survival and overall survival compared to other anti-HER2 therapies” value in series [2] was “significantly prolonged”.
